Measured values: patent US20220168427A1 (Ranok Therapeutics (Hangzhou) Co. Ltd., priority 2019, published 2022)

Tests used:
BRD4 (BD1+BD2) = target: T1, BRD4 (BD1+BD2) (Homo sapiens, UniProt O60885); conditions: read-out: BRD4 Binding Potency
T1 construct: 1.8 μg/ml recombinant BRD4 (BD1+BD2 domains) protein

[1] = Pharmacokinetics and Tissue Distribution in the MV4-11 xenograft model; assay type: in vivo, mice; conditions: female, CB-17 SCID, mouse, 5 mg/kg single intravenous dose
Protocol: Pharmacokinetics and Tissue Distribution
15 female CB-17 SCID mice (treated in accordance with AAALAC animal welfare guidelines) were weighed and administered 5 mg/kg of compound 074 by a single intravenous injection. 0.10 mL of blood was collected from each mouse by submandibular vein and sodium heparin was added as an anticoagulant. Samples were collected before compound administration, and at 1 hr, 6 hr 24 hr and 48 hr time points after administration, with 3 mice sampled per time point. After collection, samples were placed on ice and the animals sacrificed to collect tumor and normal tissues. The method development and analysis of all samples were performed by the analytical laboratory at Shanghai Medicilon Inc. Intra-day accuracy evaluation of samples for quality control was carried out during sample analysis and a quality control accuracy of more than 66.7% of samples was required between to be 80-120%. Pharmacokinetic parameters were calculated using Phoenix WinNonlin7.0 software.

RAF1 = assay: HSP90 Client Protein Degradation Flow Cytometry Assay, RAF1 in HEK-293 cells; assay type: cell-based, human
Protocol: (§1) MV4-11 cells were plated in a 24-well tissue culture plate at a density of 350,000 cells/450 μL/well and incubated in 37° C./5% CO2 for 1 hr. Cells were then treated with compounds at various concentrations and incubated in 37° C./5% CO2 for 24 hr. Cells were harvested, washed once, counted and 200 μL of 1% paraformaldehyde/PBS was added and incubated for 15 min at room temperature. 200 μL of 1×PBS/0.4% Triton X-100 was added and incubated for 15 min at 4° C. Cells were washed three times and resuspended in 50 μL of 1×PBS/0.2% Triton X-100. 2 μL/10^6 cells of anti-BRD4 antibody (ABCAM, #128874) was added and mixed by pipetting up and down. Cells were incubated for 30 min at room temperature in the dark, washed three times and resuspended in 50 μL of 1×PBS/0.2% Triton X-100. Goat anti-rabbit IgG H&L antibody (1:2000 dilution) was added and mixed by pipetting up and down and incubated for 30 min at room temperature in the dark. Finally, cells were washed three times and resuspended in 200 μL of PBS for flow cytometric analysis.
(§2) Similar flow cytometry experiments for ERBB2 in BT-474 human breast carcinoma cells (ATCC, #HTB-20) and IGF1R, EGFR and RAF1 in HEK-293 human embryonic kidney (ATCC, #CRL-1573) were performed using anti-ERBB2 (R&D, #FAB1129P), anti-IGF1R (Cell Signaling Technology, #9750), anti-EGFR (Cell Signaling Technology, #139690) and anti-RAF1 (ABCAM, #ab181115) antibodies.

MV4-11 xenograft = assay: MV4-11 AML tumor xenograft study in mice; conditions: for animals tumor free at the end of the study: 3 weeks; for tumor growth inhibition: after 3 weeks of dosing
Protocol: Tumor Xenograft Studies in Mice
MV4-11 acute myeloid leukemia and SU-DHL-4 diffuse large B-cell lymphoma (ATCC, #CRL-2957) cells were cultured in medium supplemented with 10% fetal bovine serum at 37° C./5% CO2. 5×10^6 MV-4-11 or 1×10^7 SU-DHL-4 cells were collected and re-suspended in 0.1 mL of serum-free media with Matrigel (1:1 v/v) per mouse for subcutaneous inoculation in isoflurane anesthetized male BALB/c nude or C.B-17 scid mice, respectively (treated in accordance with AAALAC animal welfare guidelines). When the average tumor volumes reached 100-200 mm^3, tumor volume outliers were removed and the remaining animals randomly divided into groups of 6-8 with similar average tumor volumes in each group. […] […] The appearance and behavior of each mouse was observed and recorded daily. Body weights and tumor volumes were measured and recorded every 2-4 days and the results were expressed as group means±SEM. Pairwise statistical comparisons between groups were performed by one-way ANOVA, and p<0.05 was considered statistically significant.

EGFR = assay: HSP90 Client Protein Degradation Flow Cytometry Assay, EGFR in HEK-293 cells; assay type: cell-based, human
Protocol: as §1, §2

IGF1R = assay: HSP90 Client Protein Degradation Flow Cytometry Assay, IGF1R in HEK-293 cells; assay type: cell-based, human
Protocol: as §1, §2

ERBB2 = assay: HSP90 Client Protein Degradation Flow Cytometry Assay, ERBB2 in BT-474 cells; assay type: cell-based, human
Protocol: as §1, §2

[2] = 100 mg/kg intravenously 1×/week

## Cc1sc2c(c1C)C(c1ccc(Cl)cc1)=N[C@@H](CC(=O)N1CCC(CN3CCN(Cc4ccc(-n5c(O)nnc5-c5cc(C(C)C)c(O)cc5O)cc4)CC3)CC1)c1nnc(C)n1-2.Cl [Compound 74, (S)-2-(4-(4-chlorophenyl)-2,3,9-trimethyl-6H-thieno[3,2-f][1,2,4]triazolo[4,3-a][1,4]diazepin-6-yl)-1-(4-((4-(4-(3-(2,4-dihydroxy-5-isopropylphenyl)-5-hydroxy-4H-1,2,4-triazol-4-yl)benzyl)piperazin-1-yl)methyl)piperidin-1-yl)ethan-1-one hydrochloride]
BRD4 (BD1+BD2)
  IC50: 100 to 1000 nM
[1]; heart
  Cmax: 1640 ng/g
  Tmax: 1 h
  half-life: 3.7 h
[1]; liver
  Cmax: 5040 ng/g
  Tmax: 1 h
  half-life: 3.37 h
[1]; lung
  Cmax: 2030 ng/g
  Tmax: 1 h
  half-life: 6.94 h
[1]; plasma
  AUC(0-inf): 3020 ng·h/mL
  Cmax: 498 ng/mL
  Tmax: 1 h
  half-life: 3.92 h
[1]; tumor
  Cmax: 462 ng/g
  Tmax: 1 h
  half-life: 32.1 h
RAF1
  IC50: 762 nM
MV4-11 xenograft; 50 mg/kg intravenously 1×/week
  animals tumor free at the end of the study: 1 out of 6
  tumor growth inhibition: significant tumor growth inhibition
MV4-11 xenograft; [2]
  animals tumor free at the end of the study: 4 out of 6
  tumor growth inhibition: significant tumor growth inhibition
MV4-11 xenograft; any group
  animal deaths and body weights: No animal deaths or significant effects on body weights were observed
EGFR
  IC50: 405 nM
IGF1R
  IC50: 1060 nM
ERBB2
  IC50: 340 nM
